# Assay results: article PMC12406256, “Food Additives Inhibit Intestinal Drug Transporters but Have Limited Effect on In Vitro Drug Permeability” (Molecular Pharmaceutics, 2025)
# Where “and” joins values, the source holds several entries; their conditions need not be identical. Equal values may be shown once. Entries after “also recorded” stand apart in the source; their conditions may differ. Read-outs that look alike come from different tables or passages of the source.
# Tests used:
# Caco-2 cells = test: in vitro
# Protocol: Caco-2 cells were cultured on 12-well Transwell polycarbonate membrane inserts with a 0.4 μm pore size (Corning Incorporated, Kennebunk, ME) at 37 °C and 5% CO2 for 21–24 days prior to the experiment as described in Hubatsch et al. The culture medium (DMEM, 10% FBS, 1% MEM nonessential amino acids, 100 U/mL penicillin–streptomycin) was changed every second day. Transepithelial electrical resistance (TEER) was measured before and after the permeability assay with a Millicell-ERS electrode (Millipore, Bedford, MA) attached to an epithelial volt ohm meter (EVOM, World Precision Instruments, Sarasota, FL). The permeability assay was performed according to a previously published protocol. […] Sulfasalazine is a substrate of BCRP and OATP2B1. , The DMSO concentration was 0.45–1.5%. Before the experiment, inserts were washed and preincubated in the transport buffer for 20 min shaking at 37 °C. Sulfasalazine and LY permeability was measured in the apical to basolateral direction at five time points (20, 40, 60, 90, and 120 min) and, additionally, in the basolateral to apical direction to calculate the efflux ratio. […] […] LY (250 μM) was added on the donor side of all inserts to measure the integrity of the cell monolayer. Before analysis, samples were centrifuged at 2755g for 30 min, and donor solution and mass balance samples were diluted 1:100. LY fluorescence was measured with a Varioskan LUX microplate reader (Thermo Fisher Scientific) at 430 nm excitation and 538 nm emission. Sulfasalazine was analyzed with ultra-performance liquid chromatography (UPLC) using a Syncronis C18 column (1.7 μm particle size, 50 × 2.1 mm + 0.2 μm Waters online filter) (Thermo Fisher Scientific) coupled with Waters Acquity UPLC interfaced with a PDA detector both controlled by the Waters Empower software version 3. The UPLC was operated in gradient mode at 354 nm. Solvents were 0.015 M phosphate buffer pH 2 (A), acetonitrile (B), 1:1 acetonitrile/methanol (strong needle wash), and 20% acetonitrile (weak needle wash). Column temperature was 30 °C, injection volume was 10 μL, retention time was 1.46 min, and flow rate was 0.5 mL/min. The gradient was 25% B → 70% B (0–3 min), 70% B → 25% B (3.00–3.01 min), and 25% B (3.01–4 min). The data were collected for the first 180 s of each UPLC run.
# In the Caco-2 permeability assay, the apparent permeability (P app) of sulfasalazine was calculated using the following equation: Papp=(dQ/dt)(1/A×C0) where dQ/dt is the rate of permeation across the cells (nmol/min), A is the surface area of the filter (1.12 cm^2), and C 0 is the initial concentration in the donor chamber (μM). The efflux ratio of sulfasalazine was calculated by dividing the P app in the basolateral to the apical direction by the P app in the apical to basolateral direction. The TEER for each cell insert was calculated before and after the experiment by multiplying the mean resistance of three measurements by the surface area of the filter (1.12 cm^2). Mass balance was calculated by dividing the […]. All experiments were done in triplicate wells, and the IC50 and Caco-2 permeability assays were repeated three times.
# P-gp [1] = molecular target: T1, P-gp (Homo sapiens, UniProt P08183); test: Vesicular transport assay, P-gp (N-methyl-quinidine substrate); details: food additive 50 μM; N-methyl-quinidine 2 μM; n = 1
# Protocol: (§1) Transport inhibition by 22 food additives was tested with Spodoptera frugiperda (Sf9) derived crude membrane vesicles expressing BCRP, MRP2, or P-gp produced in-house. […] Vesicles (50 μg total protein/well) were diluted in an assay buffer (40 mM MOPS–Tris pH 7.0, 60 mM KCl, and 6 mM MgCl2) with the substrate, and food additives (final concentration of 50 μM) in DMSO were added to the mixture. After preincubation, either the assay buffer or Mg-ATP solution (final concentration 4 mM) was added to the plate to start the reaction. The plate was incubated at 37 °C, and the reaction was stopped with an ice-cold washing mixture (40 mM MOPS-Tris pH 7.0 and 70 mM KCl). Samples were moved to a MultiScreenHTS-FB Plate Glass fiber 1.0 μm/0.65 μm Durapore filter plate (Millipore, USA), and the wells were washed five times with the ice-cold washing mixture. For BCRP and MRP2, the fluorescent substrate was eluted from the filters with 100 μL 0.1 M NaOH. For LY samples, an equal volume of 0.1 M HCl was added to neutralize the samples before fluorescence measurement. The amount of the substrate accumulated into the vesicles was measured by fluorescent detection using a Varioskan LUX microplate reader (Thermo Fisher Scientific, Finland) (Table ). The accumulation into the P-gp vesicles was measured with high-performance liquid chromatography (HPLC) (Agilent 110 series, Agilent Technologies, USA) after lysis and elution of the vesicle contents with 100 μL 3:1 methanol/water + 0.1% formic acid. The column used was a Poroshell 120 EC-C18 with a size of 4.6 × 100 mm and 2.7 μm particle size. Eluent A was 0.1% formic acid, and eluent B was acetonitrile. The flow rate of eluent was 1 mL/min, and the injection volume of samples was 10 μL. […] The retention time for NMQ was around 2.5 min.
# (§2) For the efflux transporters, the relative transport was calculated as relativetransport(%ofcontrol)=transportinh,ATP−transportinh,noATP/transportDMSO,ATP−transportDMSO,noATP×100% where transportinh,ATP and transportinh,no ATP are the transport rates in the presence of food additives with or without ATP, respectively, and transportDMSO,ATP and transportDMSO,no ATP are the corresponding transport rates in the presence of the vehicle (DMSO) with or without ATP.
# (§3) The half-maximal inhibitory concentrations (IC50) were calculated with GraphPad Prism version 9.0.2 (GraphPad Software, San Diego, CA) using nonlinear regression that fits the data to a four-parameter dose–response curve: relativetransport=minimum+maximum−minimum/1+([I]/IC50)^h where minimum and maximum describe the plateaus of minimal and maximal relative transport (%), [I] is the concentration of inhibitor, and h is the Hill slope, which describes the steepness of the slope.
# OATP2B1 [2] = molecular target: T2, OATP2B1 (Homo sapiens, UniProt O94956); test: HEK293 uptake assay, OATP2B1 (5-carboxyfluorescein substrate); format: cell-based; details: food additive 50 μM; 5-carboxyfluorescein 2 μM; HEK293 cells; n = 1
# T2 construct: expressed in transfected cells; host or cells: HEK293 cells (ATCC) transduced with recombinant OATP2B1 baculovirus
# T2 sequence (O94956 1-709): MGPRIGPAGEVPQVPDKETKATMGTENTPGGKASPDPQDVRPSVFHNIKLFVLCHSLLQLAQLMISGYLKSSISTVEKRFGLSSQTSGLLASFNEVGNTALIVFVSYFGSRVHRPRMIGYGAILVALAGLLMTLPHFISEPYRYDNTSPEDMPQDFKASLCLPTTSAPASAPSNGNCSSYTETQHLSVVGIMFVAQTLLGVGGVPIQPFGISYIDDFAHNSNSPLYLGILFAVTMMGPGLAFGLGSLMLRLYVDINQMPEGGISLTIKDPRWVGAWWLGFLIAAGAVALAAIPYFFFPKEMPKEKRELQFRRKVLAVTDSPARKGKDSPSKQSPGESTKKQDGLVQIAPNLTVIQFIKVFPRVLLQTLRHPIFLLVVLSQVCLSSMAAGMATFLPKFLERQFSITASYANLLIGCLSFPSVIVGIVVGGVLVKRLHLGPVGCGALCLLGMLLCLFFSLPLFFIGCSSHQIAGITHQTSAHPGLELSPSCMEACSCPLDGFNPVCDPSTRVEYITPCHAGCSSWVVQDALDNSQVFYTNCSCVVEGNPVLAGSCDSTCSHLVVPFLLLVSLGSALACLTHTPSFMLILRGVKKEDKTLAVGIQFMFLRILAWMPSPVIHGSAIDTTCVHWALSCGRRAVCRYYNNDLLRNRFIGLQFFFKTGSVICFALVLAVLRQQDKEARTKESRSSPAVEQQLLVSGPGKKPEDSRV
# Protocol: The inhibition of OATP2B1 was studied using a HEK293 cell-based uptake assay. HEK293 cells were cultured in DMEM supplemented with 10% FBS at 37 °C and 5% CO2 and seeded at 22,500 cells/well on 96-well plates coated with 0.1 mg/mL poly-D-lysine. After 24 h, the medium was replaced with a transduction mix (DMEM with 10% FBS, 5 mM sodium butyrate, and recombinant OATP2B1 or enhanced yellow fluorescent protein [eYFP, negative control] baculoviruses). The baculoviruses were produced as previously described. The uptake assay was performed after approximately 48 h. […] Test solutions also contained the substrate. Cells were washed with warm transport buffer and preincubated at 37 °C. Preincubation solutions were replaced with test solutions and incubated at 37 °C with shaking at 250 rpm. Transport was terminated by aspirating the test solution and washing the wells with an ice-cold transport buffer (150 μL) three times. Wells were left to dry, and cells were lysed with 0.1 M NaOH. […] Total protein concentration was measured from six random wells with a Pierce Coomassie (Bradford) Assay kit (Thermo Fisher Scientific) to ensure a similar protein concentration in the OATP2B1 and eYFP wells.
# BCRP [3] = molecular target: T3, BCRP (Homo sapiens, UniProt Q9UNQ0); test: Vesicular transport assay, BCRP (Lucifer yellow substrate); format: biochemical; set-up: made in house; host or cells: Spodoptera frugiperda Sf9 cells, crude membrane vesicles; details: for inhibition of BCRP substrate accumulation: n = 1
# T3 sequence (Q9UNQ0 1-655): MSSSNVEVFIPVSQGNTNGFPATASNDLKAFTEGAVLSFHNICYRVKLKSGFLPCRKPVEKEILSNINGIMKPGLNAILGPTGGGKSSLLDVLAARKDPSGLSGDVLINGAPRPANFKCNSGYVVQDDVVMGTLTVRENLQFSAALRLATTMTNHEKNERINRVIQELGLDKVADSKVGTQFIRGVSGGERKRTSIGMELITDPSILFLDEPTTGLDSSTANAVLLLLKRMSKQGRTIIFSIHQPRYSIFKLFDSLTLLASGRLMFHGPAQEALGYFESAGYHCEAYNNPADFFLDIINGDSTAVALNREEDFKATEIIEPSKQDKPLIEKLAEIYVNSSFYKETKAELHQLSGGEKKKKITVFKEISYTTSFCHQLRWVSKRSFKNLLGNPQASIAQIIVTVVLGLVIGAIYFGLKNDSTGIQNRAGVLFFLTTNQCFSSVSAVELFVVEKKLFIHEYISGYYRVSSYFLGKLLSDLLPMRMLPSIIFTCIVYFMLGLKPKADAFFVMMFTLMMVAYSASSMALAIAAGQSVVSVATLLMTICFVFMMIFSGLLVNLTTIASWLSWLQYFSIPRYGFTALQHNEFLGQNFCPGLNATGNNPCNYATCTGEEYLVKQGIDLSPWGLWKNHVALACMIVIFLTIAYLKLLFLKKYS
# Protocol: as §1, §2, §3
# OATP2B1 [4] = molecular target: T2, OATP2B1; details: cited from earlier work
# BCRP [5] = molecular target: T3, BCRP; details: cited from earlier work
# P-gp [6] = molecular target: T1, P-gp; set-up: made in house; host or cells: Spodoptera frugiperda Sf9 cells, crude membrane vesicles; details: ref Kulkarni et al.; cited from earlier work
# MRP2 = molecular target: T4, MRP2 (Homo sapiens, UniProt Q92887); test: Vesicular transport assay, MRP2 (CDCF substrate); format: biochemical
# T4 construct: made in house; host or cells: Spodoptera frugiperda Sf9 cells, crude membrane vesicles
# Protocol: Transport inhibition by 22 food additives was tested with Spodoptera frugiperda (Sf9) derived crude membrane vesicles expressing BCRP, MRP2, or P-gp produced in-house. […] Vesicles (50 μg total protein/well) were diluted in an assay buffer (40 mM MOPS–Tris pH 7.0, 60 mM KCl, and 6 mM MgCl2) with the substrate, and food additives (final concentration of 50 μM) in DMSO were added to the mixture. After preincubation, either the assay buffer or Mg-ATP solution (final concentration 4 mM) was added to the plate to start the reaction. The plate was incubated at 37 °C, and the reaction was stopped with an ice-cold washing mixture (40 mM MOPS-Tris pH 7.0 and 70 mM KCl). Samples were moved to a MultiScreenHTS-FB Plate Glass fiber 1.0 μm/0.65 μm Durapore filter plate (Millipore, USA), and the wells were washed five times with the ice-cold washing mixture. For BCRP and MRP2, the fluorescent substrate was eluted from the filters with 100 μL 0.1 M NaOH. […] The amount of the substrate accumulated into the vesicles was measured by fluorescent detection using a Varioskan LUX microplate reader (Thermo Fisher Scientific, Finland) (Table ).
# as §2, §3
# [7] = food additive 50 μM, Lucifer yellow 50 μM
# T1 sequence (P08183 whole entry): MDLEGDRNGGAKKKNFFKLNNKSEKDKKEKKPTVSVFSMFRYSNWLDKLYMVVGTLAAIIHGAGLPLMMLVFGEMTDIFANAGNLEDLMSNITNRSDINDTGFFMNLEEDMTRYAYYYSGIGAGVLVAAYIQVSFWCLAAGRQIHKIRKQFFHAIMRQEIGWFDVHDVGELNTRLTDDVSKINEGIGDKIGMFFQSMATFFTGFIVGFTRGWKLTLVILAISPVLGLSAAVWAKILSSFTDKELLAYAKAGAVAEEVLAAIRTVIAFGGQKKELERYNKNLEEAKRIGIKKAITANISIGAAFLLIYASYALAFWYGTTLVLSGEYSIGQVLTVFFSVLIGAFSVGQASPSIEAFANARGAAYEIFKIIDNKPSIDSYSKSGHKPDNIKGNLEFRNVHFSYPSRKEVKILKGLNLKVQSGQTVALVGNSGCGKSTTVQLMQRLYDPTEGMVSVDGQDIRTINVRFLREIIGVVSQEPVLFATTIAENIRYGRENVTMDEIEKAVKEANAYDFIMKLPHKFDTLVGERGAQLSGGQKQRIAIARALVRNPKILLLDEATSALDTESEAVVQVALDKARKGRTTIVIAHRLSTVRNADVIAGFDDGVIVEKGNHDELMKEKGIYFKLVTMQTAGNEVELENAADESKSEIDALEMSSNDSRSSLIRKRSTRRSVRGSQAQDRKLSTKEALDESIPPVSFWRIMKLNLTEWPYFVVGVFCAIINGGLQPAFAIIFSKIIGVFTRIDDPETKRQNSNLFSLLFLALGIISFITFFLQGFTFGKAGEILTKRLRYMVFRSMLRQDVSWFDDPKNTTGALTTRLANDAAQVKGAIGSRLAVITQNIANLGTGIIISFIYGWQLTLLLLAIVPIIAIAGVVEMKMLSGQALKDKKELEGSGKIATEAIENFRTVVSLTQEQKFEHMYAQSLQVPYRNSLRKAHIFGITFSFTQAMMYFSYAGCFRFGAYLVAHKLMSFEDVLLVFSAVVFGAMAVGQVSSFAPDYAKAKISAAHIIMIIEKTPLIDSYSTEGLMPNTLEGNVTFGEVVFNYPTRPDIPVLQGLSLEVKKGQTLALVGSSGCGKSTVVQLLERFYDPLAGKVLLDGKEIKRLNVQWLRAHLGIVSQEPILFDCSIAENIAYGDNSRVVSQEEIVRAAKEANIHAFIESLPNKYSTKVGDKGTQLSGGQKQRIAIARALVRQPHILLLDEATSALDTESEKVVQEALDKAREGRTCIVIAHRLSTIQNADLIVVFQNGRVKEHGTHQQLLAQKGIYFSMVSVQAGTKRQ
# T4 sequence (Q92887 whole entry): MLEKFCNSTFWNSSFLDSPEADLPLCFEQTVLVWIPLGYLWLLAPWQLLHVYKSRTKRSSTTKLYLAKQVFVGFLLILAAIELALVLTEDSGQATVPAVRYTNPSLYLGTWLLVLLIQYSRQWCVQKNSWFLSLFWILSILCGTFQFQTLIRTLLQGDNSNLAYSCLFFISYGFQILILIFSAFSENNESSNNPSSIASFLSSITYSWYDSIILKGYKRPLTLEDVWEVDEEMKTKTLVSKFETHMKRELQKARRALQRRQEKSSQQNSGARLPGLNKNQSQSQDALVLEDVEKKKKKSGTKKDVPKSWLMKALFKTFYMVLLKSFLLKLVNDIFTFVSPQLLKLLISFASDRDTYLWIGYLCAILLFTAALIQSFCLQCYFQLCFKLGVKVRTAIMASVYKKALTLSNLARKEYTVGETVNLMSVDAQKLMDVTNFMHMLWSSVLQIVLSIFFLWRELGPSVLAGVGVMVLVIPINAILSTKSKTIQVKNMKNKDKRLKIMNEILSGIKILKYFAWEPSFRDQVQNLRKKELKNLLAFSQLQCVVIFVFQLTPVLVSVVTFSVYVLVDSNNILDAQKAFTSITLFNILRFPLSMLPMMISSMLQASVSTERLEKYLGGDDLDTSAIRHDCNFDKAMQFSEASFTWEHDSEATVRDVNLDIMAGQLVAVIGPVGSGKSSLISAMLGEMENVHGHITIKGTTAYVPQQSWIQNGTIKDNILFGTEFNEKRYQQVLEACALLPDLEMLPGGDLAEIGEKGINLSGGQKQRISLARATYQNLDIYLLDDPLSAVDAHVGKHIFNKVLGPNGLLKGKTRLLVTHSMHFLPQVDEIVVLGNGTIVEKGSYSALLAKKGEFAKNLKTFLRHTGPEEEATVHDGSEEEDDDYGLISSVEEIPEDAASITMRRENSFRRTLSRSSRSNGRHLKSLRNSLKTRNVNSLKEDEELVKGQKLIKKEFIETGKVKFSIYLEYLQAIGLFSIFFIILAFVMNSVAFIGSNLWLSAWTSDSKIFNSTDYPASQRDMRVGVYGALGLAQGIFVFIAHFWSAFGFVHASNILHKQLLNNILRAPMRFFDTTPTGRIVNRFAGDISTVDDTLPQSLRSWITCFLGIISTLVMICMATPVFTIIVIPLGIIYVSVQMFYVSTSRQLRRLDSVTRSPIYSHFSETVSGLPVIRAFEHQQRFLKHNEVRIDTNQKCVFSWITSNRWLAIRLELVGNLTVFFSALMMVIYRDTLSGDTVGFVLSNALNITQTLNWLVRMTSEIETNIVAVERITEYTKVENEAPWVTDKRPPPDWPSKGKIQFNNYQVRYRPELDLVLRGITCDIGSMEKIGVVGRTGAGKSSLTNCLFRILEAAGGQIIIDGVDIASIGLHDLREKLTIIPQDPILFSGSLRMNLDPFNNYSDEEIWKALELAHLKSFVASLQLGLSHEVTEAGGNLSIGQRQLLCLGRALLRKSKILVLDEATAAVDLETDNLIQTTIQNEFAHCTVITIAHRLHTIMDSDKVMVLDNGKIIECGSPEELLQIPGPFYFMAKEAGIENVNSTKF
compound,measurement,setting,value
"COc1ccc2c3c([nH]c2c1)[C@H](CC(C)C)N1C(=O)[C@H](CCC(=O)OC(C)(C)C)NC(=O)[C@@H]1C3 [Ko-143, reference compound]",apical to basolateral P app of sulfasalazine with control inhibitor,"Caco-2 cells; Ko-143 10 μM on apical and basolateral sides, sulfasalazine 500 μM",~0.6 × 10^–6 cm/s
O=C1O[C@H]([C@@H](O)CO)C(O)=C1O [ascorbic acid],inhibition of P-gp substrate accumulation,P-gp [1],None
CC1=C(/C=C/C(C)=C/C=C/C(C)=C/C=C/C=C(C)/C=C/C=C(\C)C=O)C(C)(C)CCC1 [beta-apo-8’-carotenal],inhibition of OATP2B1-mediated uptake,OATP2B1 [2],did not inhibit these transporters as markedly as beta-carotene
same,inhibition of P-gp substrate accumulation,P-gp [1],did not inhibit these transporters as markedly as beta-carotene
same,inhibition of BCRP substrate accumulation,BCRP [3]; [7],did not inhibit these transporters as markedly as beta-carotene
COc1ccc(O)c(C(C)(C)C)c1 [butylated hydroxyanisole],inhibition of OATP2B1-mediated uptake,OATP2B1 [2],≤ 50%
same,OATP2B1 inhibition,OATP2B1 [4]; ref Kulkarni et al.,significant inhibitor
same,IC50,"OATP2B1 [4]; ref Kulkarni et al., read-out: IC50, OATP2B1",> 50 µM
same,IC50,"BCRP [5]; read-out: IC50, BCRP, ref Kulkarni et al.",> 50 µM
same,BCRP inhibition,BCRP [5]; ref Kulkarni et al.,significant inhibitor
same,inhibition of P-gp substrate accumulation,P-gp [1],≤ 50%
same,inhibition of BCRP substrate accumulation,BCRP [3]; [7],≤ 50%
same,IC50,P-gp [6],> 50 µM
same,P-gp inhibition,P-gp [6],significant inhibitor
Cc1cc(C(C)(C)C)c(O)c(C(C)(C)C)c1 [butylated hydroxytoluene],IC50,"MRP2; CDCF 5 μM, membrane vesicles, n = 3, read-out: IC50 (95% CI), MRP2",49 µM
same,inhibition at 50 μM,"MRP2; Sf9-derived crude membrane vesicles expressing MRP2, pH 7, probe CDCF 5 μM, food additive 50 μM, n = 1, read-out: inhibition of MRP2 substrate accumulation",≥ 50%
same,inhibition of OATP2B1-mediated uptake,OATP2B1 [2],OATP2B1-stimulating effect
same,OATP2B1 inhibition,OATP2B1 [4]; ref Kulkarni et al.,did not inhibit; also recorded: OATP2B1-stimulating effect
same,BCRP inhibition,BCRP [5]; ref Kulkarni et al.,did not inhibit
same,inhibition of P-gp substrate accumulation,P-gp [1],None
same,P-gp inhibition,P-gp [6],did not inhibit
CCCCCCCCCCCCOC(=O)c1cc(O)c(O)c(O)c1 [dodecyl gallate],IC50,"BCRP [3]; Lucifer yellow 50 μM, membrane vesicles, n = 3, read-out: IC50 (95% CI), BCRP",22.5 µM
same,inhibition at 50 μM,"BCRP [3]; Sf9-derived crude membrane vesicles expressing BCRP, pH 7, probe Lucifer yellow 50 μM, food additive 50 μM, n = 1, read-out: inhibition of BCRP substrate accumulation",≥ 50%
OC[C@@H](O)[C@@H](O)CO [erythritol],inhibition of P-gp substrate accumulation,P-gp [1],None
OC[C@@H](O)[C@@H](O[C@@H]1O[C@H](CO)[C@H](O)[C@H](O)[C@H]1O)[C@H](O)[C@@H](O)CO [lactitol],inhibition of P-gp substrate accumulation,P-gp [1],None
OC[C@@H](O)[C@@H](O[C@H]1O[C@H](CO)[C@@H](O)[C@H](O)[C@H]1O)[C@H](O)[C@@H](O)CO [maltitol],inhibition of P-gp substrate accumulation,P-gp [1],None
OC[C@@H](O)[C@@H](O)[C@H](O)[C@H](O)CO [mannitol],inhibition of P-gp substrate accumulation,P-gp [1],None
CCCOC(=O)c1cc(O)c(O)c(O)c1 [propyl gallate],inhibition of P-gp substrate accumulation,P-gp [1],None
OC[C@@H](O)[C@@H](O)[C@H](O)[C@@H](O)CO [sorbitol],inhibition of P-gp substrate accumulation,P-gp [1],None
O=S(=O)([O-])c1ccc(N=Nc2c(O)ccc3cc(S(=O)(=O)[O-])ccc23)cc1.[Na+].[Na+] [sunset yellow FCF],effect on sulfasalazine permeability (P app),Caco-2 cells; Caco-2,None of the selected food additives showed any effect
same,IC50,"OATP2B1 [4]; pH 5.5, previously characterized inhibitors, ref previous studies, read-out: IC50, OATP2B1, pH 5.5",20.3 µM
same,Ki,"OATP2B1 [4]; previously characterized inhibitors, ref previous studies, read-out: K i, OATP2B1",68.4 µM
same,IC50,"BCRP [5]; read-out: IC50 (95% CI), BCRP, previously characterized inhibitors, ref previous studies",10.6 µM and 14.1 µM
O=C([O-])C1=NN(c2ccc(S(=O)(=O)[O-])cc2)C(=O)C1N=Nc1ccc(S(=O)(=O)[O-])cc1.[Na+].[Na+].[Na+] (centres unmarked) [tartrazine],sulfasalazine P app fold change,Caco-2 cells; food additive 200 μM on both sides of the cell monolayer,≤ 2
OC[C@@H](O)[C@H](O)[C@@H](O)CO [xylitol],inhibition of P-gp substrate accumulation,P-gp [1],None
